From ChEMBL document CHEMBL4130591, “2-Arylidene Hydrazinecarbodithioates as Potent, Selective Inhibitors of Cystathionine γ-Lyase (CSE)” (ACS Med Chem Lett, 2017)
Calls of active or inactive are those of the source. No cut-off for these calls is given here.

target: T1, Cystathionine gamma-lyase (Homo sapiens, UniProt P32929); assay: Inhibition of cystathionine gamma-lyase (unknown origin)
T1 sequence (P32929 whole entry): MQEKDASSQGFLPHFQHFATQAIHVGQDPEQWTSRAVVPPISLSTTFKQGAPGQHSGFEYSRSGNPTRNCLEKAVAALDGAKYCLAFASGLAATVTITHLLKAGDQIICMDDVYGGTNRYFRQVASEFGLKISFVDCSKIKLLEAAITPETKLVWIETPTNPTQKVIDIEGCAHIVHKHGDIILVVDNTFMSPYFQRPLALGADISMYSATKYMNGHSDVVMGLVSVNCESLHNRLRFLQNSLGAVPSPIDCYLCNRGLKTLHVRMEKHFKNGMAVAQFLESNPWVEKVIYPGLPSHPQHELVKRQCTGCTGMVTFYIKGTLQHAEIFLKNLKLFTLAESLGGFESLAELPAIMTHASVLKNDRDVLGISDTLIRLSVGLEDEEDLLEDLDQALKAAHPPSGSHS

IC50 [µM] | Structure (SMILES)
6.3 | N=C1C=C(N)C(=O)c2[nH]c(=O)ccc21
270 | CC(C)(S)[C@@H](N)C(=O)O [PENICILLAMINE]
1.1 | NCCO/C=C/[C@H](N)C(=O)O
30 | C#CCNC(=O)[C@H]1CSC(=O)N1

target: T1, Cystathionine gamma-lyase; assay: Inhibition of cystathionine gamma-lyase (unknown origin) assessed as reduction in cysteine formation from CPM at 40 uM using L-cystathionine incubated for 7 mins by fluorescence-based primary assay

inhibition [%] | Structure (SMILES)
> 30 | CSC1=NNC(c2ccccn2)S1 (stereo not given)

target: T1, Cystathionine gamma-lyase; assay: Reversible inhibition of cystathionine gamma-lyase (unknown origin) assessed as reduction in cysteine formation from CPM using L-cystathionine at 50 uM incubated for 2 hrs followed by dialysis for 18 to 48 hrs by fluorescence-based primary assay

inhibition | Structure (SMILES)
Active | CSC1=NNC(c2ccccn2)S1 (stereo not given)

target: T1, Cystathionine gamma-lyase; assay: Inhibition of cystathionine gamma-lyase (unknown origin) assessed as reduction in H2S production at 40 uM using AzMC probe by fluorescence based assay

inhibition | Structure (SMILES)
Active | CSC1=NNC(c2ccccn2)S1 (stereo not given)

target: T2, Cystathionine beta-synthase (Homo sapiens) (UniProt P35520); assay: Inhibition of human recombinant CBS assessed as reduction in H2S production at 40 uM using AzMC probe by fluorescence based assay
T2 sequence (whole entry): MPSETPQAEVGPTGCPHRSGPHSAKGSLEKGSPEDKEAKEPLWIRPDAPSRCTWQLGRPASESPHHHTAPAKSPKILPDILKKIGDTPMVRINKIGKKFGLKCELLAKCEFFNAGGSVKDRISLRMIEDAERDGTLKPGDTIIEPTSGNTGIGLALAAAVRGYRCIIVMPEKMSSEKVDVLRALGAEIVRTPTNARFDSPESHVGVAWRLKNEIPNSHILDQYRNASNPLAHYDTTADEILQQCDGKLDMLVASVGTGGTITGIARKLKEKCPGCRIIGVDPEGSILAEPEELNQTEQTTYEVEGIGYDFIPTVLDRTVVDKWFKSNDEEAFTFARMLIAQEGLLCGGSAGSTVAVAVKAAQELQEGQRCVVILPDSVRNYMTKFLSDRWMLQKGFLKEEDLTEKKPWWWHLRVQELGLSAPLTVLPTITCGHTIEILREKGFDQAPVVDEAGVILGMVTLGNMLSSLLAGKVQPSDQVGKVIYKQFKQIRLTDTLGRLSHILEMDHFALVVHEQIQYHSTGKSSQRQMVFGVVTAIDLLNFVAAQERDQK

inhibition | Structure (SMILES)
inactive | CSC1=NNC(c2ccccn2)S1 (stereo not given)

target: T1, Cystathionine gamma-lyase; assay: Inhibition of cystathionine gamma-lyase (unknown origin) assessed as reduction in cysteine formation from CPM using L-cystathionine pre-incubated for 15 min followed by L-cystathionine and CPM addition and measured after 7 mins by fluorescence-based primary assay

Structure (SMILES) | IC50 [µM]
CSC1=NNC(c2ccccn2)S1 (stereo not given) | 6
CC(C)(C)c1ccc(NC(=O)CSC(=S)N/N=C/c2cnccn2)cc1 | > 100
CC(C)(C)c1ccc(NC(=O)CSC(=S)N/N=C/c2ncccc2F)cc1 | 2
O=C(CSC(=S)N/N=C/c1ncccc1F)Nc1ccc(C(F)(F)F)cc1 | 6
Cc1ccc(NC(=O)CSC(=S)N/N=C/c2ncccc2F)cc1 | 2
CC(C)(C)c1ccc(NC(=O)CSC(=S)N/N=C/c2ccccn2)cc1 | 3
O=C(CSC(=S)N/N=C/c1ccccn1)Nc1ccc(F)cc1 | > 100
CS/C(S)=N/N=C(\C)c1ccccn1 | > 100
Cc1ccc(NC(=O)CSC(=S)N/N=C/c2cccc(Br)n2)cc1 | 10
COc1ccc(NC(=O)CSC(=S)N/N=C/c2cccc(C)n2)cc1 | 1.9
Cc1ccc(NC(=O)CSC(=S)N/N=C/c2nn(C)cc2Cl)cc1 | 3
COc1ccc(NC(=O)CSC(=S)N/N=C/c2ccccn2)cc1 | 2
CC(C)(C)c1ccc(NC(=O)CSC(=S)N/N=C/c2ccncc2)cc1 | 40
Cc1ccc(NC(=O)CSC(=S)N/N=C/c2ncccc2C)cc1 | 2.5
Cc1ccc(NC(=O)CSC(=S)N/N=C/c2ccccn2)cc1 | 2
COc1ccc(NC(=O)CSC(=S)N/N=C/c2ccc(Br)cn2)cc1 | > 100
Cc1cccc(/C=N/NC(=S)SCC(=O)Nc2ccc(C(C)(C)C)cc2)n1 | 6
COc1ccc(NC(=O)CSC(=S)N/N=C/c2ncccc2F)cc1 | 1.2
CSC(=S)N/N=C/c1ccc(Br)cn1 | 10
CC(C)(C)c1ccc(NC(=O)CSC(=S)N/N=C/c2cccc(Br)n2)cc1 | 15
CSC(=S)N/N=C/c1nn(C)cc1Cl | 6
CSC(=S)N/N=C/c1ccncc1 | 40
Cn1cc(Cl)c(/C=N/NC(=S)SCC(=O)Nc2ccc(C(C)(C)C)cc2)n1 | 6
CSC(=S)N/N=C/c1ccccn1 | 6
CSC(=S)N/N=C/c1cnccn1 | 15
CSC(=S)N/N=C/c1cccc(C)n1 | 5
Cc1ccc(NC(=O)CSC(=S)N/N=C/c2cccc(C)n2)cc1 | 3.5
COc1ccc(NC(=O)CSC(=S)N/N=C/c2nn(C)cc2Cl)cc1 | 2.7

Further lines, results first:

IC50 [µM] | Structure (SMILES)
50 | CSC(=S)N/N=C/c1cccnc1
2.1 | COc1ccc(NC(=O)CSC(=S)N/N=C/c2cscn2)cc1
> 100 | O=C(CSC(=S)N/N=C/c1ccccn1)Nc1cccc(Br)c1
6 | CSC(=S)N/N=C/c1ncccc1C
6 | O=C(CSC(=S)N/N=C/c1ccccn1)Nc1ccccc1
15 | CSC(=S)N/N=C/c1cc[nH]n1
5 | CSC(=S)N/N=C/c1ncccc1F
7 | CSC(=S)N/N=C/c1cscn1
> 100 | CSC(=S)N/N=C/c1c[nH]c2ccccc12
12 | CSC(=S)N/N=C/c1cccc(Br)n1
25 | Cc1ccc(NC(=O)CSC(=S)N/N=C/c2cccnc2)cc1
12 | CC(C)(C)c1ccc(NC(=O)CSC(=S)N/N=C/c2cccnc2)cc1
> 100 | CSC(=S)N/N=C/c1cc2ccccc2n1C

species: Homo sapiens; assay: Selectivity for cystathionine gamma-lyase (unknown origin) over human recombinant CBS

Selectivity ratio | Structure (SMILES)
400 | COc1ccc(NC(=O)CSC(=S)N/N=C/c2ncccc2F)cc1
